Results as given in PubChem BioAssay AID720513 (Broad Institute, 2013).
Results filed as inconclusive are left out.

The compounds below were run on U2OS PGC1a acetylation AlphaLISA, overnight (assay: PGC1a acetylation increase, cellular AlphaLISA – cell-based, cherry-picked samples, set 6, dose response (AID 720513);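 also: cells made to overexpress flag tagged PGC1a plus GCN5 acetyltransferase by viral infection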).

How did the AC40 turn out when `O=C1OC(Oc2ccc(Br)cc2)(c2ccccc2)c2ccccc21` (stereo not given) was run?
Its AC40 is 1.46 µM.

Which AC40 does the source give for `O=C1NCN(c2ccccc2)C12CCN(C(c1cc3ccccc3o1)c1nnnn1C1CCCCC1)CC2` (stereo not given) here?
The AC40 was 1.78 µM.

For `NC(=O)Cc1ccc2c(c1)[nH]c1ccccc12`, which AC40 is on record?
The AC40 was 1.33 µM.

With `O=C(NCc1ccccc1)N1CCC(n2cnc3cc(F)ccc32)CC1` as the compound, how does the AC40 read?
Its AC40 is 1.89 µM.

Which AC40 does the source give for `CCOC(=O)c1ccc(NC(=O)N2CCc3ccccc3C2)cc1` here?
The AC40 was 0.478 µM.

Which AC40 does the source give for `Cc1cc(C)c2nc(N(CCCN(C)C)C(=O)c3ccc(S(=O)(=O)N4CCCCCC4)cc3)sc2c1` here?
The AC40 was 2.9 µM.

For `c1ccc(Cn2nnnc2C(c2cccs2)N2CCCCCC2)cc1` (stereo not given), which AC40 is on record?
The AC40 was 14.2 µM.

`CC1CC(NS(=O)(=O)c2cccs2)CC(C)(C)C1` (stereo not given) was tested. Which AC40 did it give?
The AC40 was 0.437 µM.

For `O=S(=O)(NCc1ccccc1Br)c1ccccc1Br`, which AC40 is on record?
Its AC40 is 1.68 µM.

`COc1ccc(N(C(=O)c2snc(C(N)=O)c2N)C(C(=O)NC2CCCCC2)c2ccc(C)o2)cc1` (stereo not given) was tested. Which AC40 did it give?
The AC40 was 5.68 µM.

`Cc1cc(C)c2c(-n3cccc3)c(C(=O)NNS(=O)(=O)c3ccc(F)cc3)sc2n1` was tested. Which AC40 did it give?
The AC40 was 5.62 µM.

Which AC40 does the source give for `O=C(c1cc(C2CC2)on1)N1CCCC(N2CCN(c3cccc(C(F)(F)F)c3)CC2)C1` (stereo not given) here?
The AC40 was 10.8 µM.

How did the AC40 turn out when `COc1cc(CNC(=O)c2cc(-c3cc(C)cc(F)c3)n[nH]2)cc(OC)c1` was run?
The AC40 was 15.8 µM.

With `O=C(Cn1c(CN2CCCCC2)nc2ccccc2c1=O)Nc1ccccc1` as the compound, how does the AC40 read?
The AC40 was 5.19 µM.

Which AC40 does the source give for `NC(=O)Cn1cc(C(=O)c2cccs2)c2ccccc21` here?
The AC40 was 3.92 µM.

`OC1CCCC1NCc1ccnc2cc(Cl)ccc12` (stereo not given) was tested. Which AC40 did it give?
The AC40 was 10.6 µM.

For `COc1cc(CN2CC3(CCN(S(=O)(=O)c4cccs4)CC3)c3c(n(C)c4cc(OC)ccc34)[C@H]2CO)cc(OC)c1`, which AC40 is on record?
The AC40 was 14.3 µM.

With `Nc1ccc(N2CCCCC2)cc1N1CCCCC1` as the compound, how does the AC40 read?
The AC40 was 5.98 µM.

Which AC40 does the source give for `Fc1ccc(-c2nn3c(C4COc5ccccc5O4)nnc3s2)cc1` (stereo not given) here?
Its AC40 is 1.01 µM.

With `O=C(CS(=O)CC(=O)Nc1cccc2c1CCCC2)Nc1ccc(F)cc1` (stereo not given) as the compound, how does the AC40 read?
Its AC40 is 10.9 µM.

`CC/C(=C(\c1ccc(O)cc1)c1ccc(OCCN(C)C)cc1)c1ccccc1` was tested. Which AC40 did it give?
Its AC40 is 2.41 µM.

Which AC40 does the source give for `Cn1ncc(Cl)c1C(=O)Nc1sc2c(c1C(N)=O)CCC2` here?
Its AC40 is 5.65 µM.

How did the AC40 turn out when `O=C(Nc1c(F)cccc1F)c1ccc(-n2cncn2)nc1` was run?
Its AC40 is 9.12 µM.

How did the AC40 turn out when `CSCCC(c1nnnn1-c1c(C)cccc1C)N1CCC(n2c(=O)[nH]c3ccccc32)CC1` (stereo not given) was run?
Its AC40 is 1.32 µM.

`CO[C@@H]1CN(C)C(=O)c2cc(NC(=O)c3ccc(Oc4ccccc4)cc3)ccc2OC[C@@H](C)NC[C@@H]1C` was tested. Which AC40 did it give?
Its AC40 is 15.2 µM.

With `Cc1ccc(CC(=O)N2CCN(c3ccc([N+](=O)[O-])cc3)CC2)cc1` as the compound, how does the AC40 read?
The AC40 was 0.312 µM.

How did the AC40 turn out when `CCN1CCN(C(=O)c2ccc3c(=O)n(CCC4=CCCCC4)c(=O)[nH]c3c2)CC1` was run?
Its AC40 is 1.94 µM.

With `Cc1ccc2[nH]cc(C(=O)CN3CCN(c4ccccc4F)CC3)c2c1` as the compound, how does the AC40 read?
The AC40 was 2.99 µM.

With `C[C@@H]1CN([C@@H](C)CO)C(=O)c2c(c3ccccc3n2C)-c2ccccc2CO[C@@H]1CN(C)C(=O)c1cc(Cl)cc(Cl)c1` as the compound, how does the AC40 read?
The AC40 was 12.7 µM.

How did the AC40 turn out when `CCN1CCN(c2cc(C)c3cc(NC(=O)c4ccc(Br)o4)ccc3n2)CC1` was run?
The AC40 was 8.23 µM.

`CCCCN(CC)CCCNC(=O)c1cc2c(=O)n(CC)c3ccccc3c2s1` was tested. Which AC40 did it give?
The AC40 was 1.26 µM.

For `COc1ccc(S(=O)(=O)N(C)C[C@@H]2Oc3cc(C#CC4CC4)ccc3S(=O)(=O)N([C@@H](C)CO)C[C@@H]2C)cc1`, which AC40 is on record?
The AC40 was 15.2 µM.

With `COc1ccc(C(C)(O)c2nc(-c3ccc(S(C)(=O)=O)cc3)cs2)cc1` (stereo not given) as the compound, how does the AC40 read?
Its AC40 is 7.7 µM.

Which AC40 does the source give for `O=C(CC1SC(=Nc2ccc3c(c2)OCCO3)NC1=O)Nc1ccc(F)cc1F` (stereo not given) here?
The AC40 was 0.191 µM.

With `N#C/C(=C(/O)c1ccco1)c1nc2ccccc2[nH]1` as the compound, how does the AC40 read?
The AC40 was 0.841 µM.

Which AC40 does the source give for `O=C(NCc1ccccc1)C1Cc2c(-c3ccc(Cl)cc3)ccnc2O1` (stereo not given) here?
Its AC40 is 6.16 µM.

`Cc1noc(C)c1S(=O)(=O)Nc1ccc2c(c1)C(=O)N([C@@H](C)CO)C[C@@H](C)[C@@H](CN(C)Cc1ccc3c(c1)OCO3)OCCCC[C@@H](C)O2` was tested. Which AC40 did it give?
The AC40 was 3.78 µM.

Which AC40 does the source give for `COc1ccc(NC(=O)c2sccc2SCc2cccc(C(F)(F)F)c2)cc1` here?
Its AC40 is 4.18 µM.

For `CCN(CC)CCOc1ccc(/C(=C(\Cl)c2ccccc2)c2ccccc2)cc1`, which AC40 is on record?
Its AC40 is 3.01 µM.

Which AC40 does the source give for `COc1ccc(-n2nnnc2CNC(=O)c2ccc3ccccc3c2)cc1` here?
Its AC40 is 6.36 µM.

Which AC40 does the source give for `CCOc1ccccc1CN1CCN(C2CCC2)CC1CCO` (stereo not given) here?
The AC40 was 6.23 µM.

With `COc1ccc(NC(=O)C2(C)Cc3c(-c4cccc(NC(C)=O)c4)ccnc3O2)cc1` (stereo not given) as the compound, how does the AC40 read?
Its AC40 is 17.1 µM.

`C[C@@H]1CN([C@@H](C)CO)C(=O)c2c(c3ccccc3n2C)-c2ccccc2CO[C@@H]1CN(C)C(=O)Nc1cccc(C(F)(F)F)c1` was tested. Which AC40 did it give?
The AC40 was 10 µM.

How did the AC40 turn out when `COc1cc(C)c(CN2CCN(S(=O)(=O)c3ccc(Cl)s3)CC2)cc1OC` was run?
The AC40 was 0.525 µM.

`Cc1cc(C)cc(N(CC(=O)NC2CC3CCC2C3)S(C)(=O)=O)c1` (stereo not given) was tested. Which AC40 did it give?
The AC40 was 17.1 µM.

For `CC(=O)c1cc(-c2ccccc2)n(CCC(=O)NC2CCCCC2)c1C`, which AC40 is on record?
Its AC40 is 7.4 µM.

With `C=C[C@H]1C(C(=O)OCC)=CC[C@@H](c2ccccc2)N1S(=O)(=O)c1ccc(C)cc1` as the compound, how does the AC40 read?
The AC40 was 0.249 µM.

With `Cc1cc2oc(=O)cc(CN3CCC(C)CC3)c2cc1C` as the compound, how does the AC40 read?
Its AC40 is 5.71 µM.

How did the AC40 turn out when `COc1ccc(Nc2nnc(-c3ccc(C(N)=O)cc3)c3ccccc23)cc1` was run?
Its AC40 is 0.524 µM.

For `COc1ccc(S(=O)(=O)NNC(=O)c2csc(-n3nc(C)cc3C(F)(F)F)n2)cc1`, which AC40 is on record?
The AC40 was 7.43 µM.
